Results: the supplement of paper PMC11451515

Key:
Details in all cases: 48 h
SEM cells [1] = test: AUC of viability dose-response curve (% viability x log10 dose units); higher = less sensitive
Summary of the method: (§1)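 Area under the curve was integrated by trapezoidal rule from a log-logistic fit of normalised viability, with curves exceeding full viability scaled and quality-control failures removed. The fit had four parameters over log10 doses. Viability came from CellTiter-Glo One luminescence, normalised per plate to DMSO and cell-free wells, after leukemia cells adapted to each medium (500 or 1000 cells/well, 1536-well plates) were exposed to library compounds in DMSO for 48 h at 37°C. The 11 threefold doses ran from 47 μM to 0.79 nM.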

NOMO1 [2] = test: as above
Summary of the method: as §1

P12-Ichikawa [3] = test: as above
Summary of the method: as §1

SEM cells [4] = test: cell viability relative to DMSO control; higher = less cytotoxic
Summary of the method: (§2)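 Viability, reported as a per-plate percentage of DMSO wells with cell-free wells as background, came from CellTiter-Glo One luminescence. Reading took place after 48 h at 37°C. Before that, NOMO1 or SEM (500 cells/well) or P12-Ichikawa (1000 cells/well) leukemia cells, adapted for at least four passages in each medium, were seeded in 1536-well plates (5 μl) and pin-dosed with library compounds in DMSO, 47 μM to 0.79 nM over 11 threefold points.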

NOMO1 [5] = test: as above
Summary of the method: as §2

P12-Ichikawa [6] = test: as above
Summary of the method: as §2

CC1=CC/2=C(C=C1C)N(C[C@@H](O)[C@@H](O)[C@@H](O)CO)C/3=N/C(=O)NC(=O)C3=N2
AUC of viability dose-response curve
Details	NOMO1 [2]	P12-Ichikawa [3]	SEM cells [1]
HPLM + 10% dialyzed FBS	462	458	474
RPMI 5 mM glucose + 10% FBS	472	449	428
RPMI 5 mM glucose + 10% dialyzed FBS	460	451	474

cell viability [%]
Details	NOMO1 [5]	P12-Ichikawa [6]	SEM cells [4]
HPLM + 10% dialyzed FBS, 0.000781 µM	130	118	117
HPLM + 10% dialyzed FBS, 0.00234 µM	119	123	122
HPLM + 10% dialyzed FBS, 0.00702 µM	119	117	126
HPLM + 10% dialyzed FBS, 0.0211 µM	115	116	118
HPLM + 10% dialyzed FBS, 0.0632 µM	124	120	113
HPLM + 10% dialyzed FBS, 0.19 µM	135	129	117
HPLM + 10% dialyzed FBS, 0.569 µM	139	113	129
HPLM + 10% dialyzed FBS, 1.71 µM	125	109	116
HPLM + 10% dialyzed FBS, 5.12 µM	89.1	115	115
HPLM + 10% dialyzed FBS, 15.4 µM	127	103	127
HPLM + 10% dialyzed FBS, 46.1 µM	46.2	107	105
RPMI 5 mM glucose + 10% FBS, 0.000781 µM	108	–	85.8
RPMI 5 mM glucose + 10% FBS, 0.00234 µM	108	–	98.8
RPMI 5 mM glucose + 10% FBS, 0.00702 µM	116	–	86.8
RPMI 5 mM glucose + 10% FBS, 0.0211 µM	118	–	98.6
RPMI 5 mM glucose + 10% FBS, 0.0632 µM	116	–	93.3
RPMI 5 mM glucose + 10% FBS, 0.19 µM	117	–	97.8
RPMI 5 mM glucose + 10% FBS, 0.569 µM	110	–	92.3
RPMI 5 mM glucose + 10% FBS, 1.71 µM	120	–	77.9
RPMI 5 mM glucose + 10% FBS, 5.12 µM	108	–	77.5
RPMI 5 mM glucose + 10% FBS, 15.4 µM	111	–	90.3
RPMI 5 mM glucose + 10% FBS, 46.1 µM	98.5	–	85.5
RPMI 5 mM glucose + 10% dialyzed FBS, 0.000781 µM	113	122	110
RPMI 5 mM glucose + 10% dialyzed FBS, 0.00234 µM	126	122	127
RPMI 5 mM glucose + 10% dialyzed FBS, 0.00702 µM	113	121	107
RPMI 5 mM glucose + 10% dialyzed FBS, 0.0211 µM	123	132	106
RPMI 5 mM glucose + 10% dialyzed FBS, 0.0632 µM	126	123	110
RPMI 5 mM glucose + 10% dialyzed FBS, 0.19 µM	123	121	107
RPMI 5 mM glucose + 10% dialyzed FBS, 0.569 µM	128	118	118
RPMI 5 mM glucose + 10% dialyzed FBS, 1.71 µM	123	113	113
RPMI 5 mM glucose + 10% dialyzed FBS, 5.12 µM	108	108	117
RPMI 5 mM glucose + 10% dialyzed FBS, 15.4 µM	107	105	129
RPMI 5 mM glucose + 10% dialyzed FBS, 46.1 µM	90.1	102	102
